From publication PMC5680308, “Binding of mycotoxins to proteins involved in neuronal plasticity: a combined in silico/wet investigation” (Scientific Reports, 2017)
Where two headings read alike, the source gives them in different places.

Legend:
[1] = biological target: T1, Human recombinant neuroligin 4-X linked (NLGN4X) (Homo sapiens, UniProt Q8N0W4); assay: biochemical; type: binding; settings: for Kd: read-out: dissociation constant (kD)
[2] = biological target: T1, Human recombinant neuroligin 4-X linked (NLGN4X); assay: Microscale thermophoresis (MST) assay; type: binding
[3] = biological target: T2, human recombinant acetylcholinesterase (AChE) (Homo sapiens, UniProt P22303); assay: Microscale thermophoresis (MST) assay; type: binding
T2 construct: purchased Sigma Aldrich (Milano, Italy)

[4] = biological target: T2, human recombinant acetylcholinesterase (AChE); assay: Fluorescence steady-state binding experiments (intrinsic Trp fluorescence); settings: pH 7.4

T1 sequence (Q8N0W4 42-676 limits assumed): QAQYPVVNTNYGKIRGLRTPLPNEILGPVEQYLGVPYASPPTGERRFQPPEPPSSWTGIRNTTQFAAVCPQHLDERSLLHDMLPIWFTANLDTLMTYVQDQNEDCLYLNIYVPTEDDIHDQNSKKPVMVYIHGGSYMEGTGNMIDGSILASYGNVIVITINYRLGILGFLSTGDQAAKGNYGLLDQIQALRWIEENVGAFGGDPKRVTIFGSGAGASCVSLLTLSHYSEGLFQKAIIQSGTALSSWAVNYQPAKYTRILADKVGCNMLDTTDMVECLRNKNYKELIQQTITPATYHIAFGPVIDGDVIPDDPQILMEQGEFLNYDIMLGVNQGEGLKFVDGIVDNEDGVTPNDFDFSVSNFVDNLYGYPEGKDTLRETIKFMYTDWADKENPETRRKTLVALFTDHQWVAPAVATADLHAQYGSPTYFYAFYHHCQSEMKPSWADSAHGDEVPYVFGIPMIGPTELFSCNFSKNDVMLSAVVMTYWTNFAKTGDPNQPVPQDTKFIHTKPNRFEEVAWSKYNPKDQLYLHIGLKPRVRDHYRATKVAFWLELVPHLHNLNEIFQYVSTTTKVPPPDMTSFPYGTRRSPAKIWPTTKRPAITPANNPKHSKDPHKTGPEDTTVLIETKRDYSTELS
T2 sequence (P22303 32-614): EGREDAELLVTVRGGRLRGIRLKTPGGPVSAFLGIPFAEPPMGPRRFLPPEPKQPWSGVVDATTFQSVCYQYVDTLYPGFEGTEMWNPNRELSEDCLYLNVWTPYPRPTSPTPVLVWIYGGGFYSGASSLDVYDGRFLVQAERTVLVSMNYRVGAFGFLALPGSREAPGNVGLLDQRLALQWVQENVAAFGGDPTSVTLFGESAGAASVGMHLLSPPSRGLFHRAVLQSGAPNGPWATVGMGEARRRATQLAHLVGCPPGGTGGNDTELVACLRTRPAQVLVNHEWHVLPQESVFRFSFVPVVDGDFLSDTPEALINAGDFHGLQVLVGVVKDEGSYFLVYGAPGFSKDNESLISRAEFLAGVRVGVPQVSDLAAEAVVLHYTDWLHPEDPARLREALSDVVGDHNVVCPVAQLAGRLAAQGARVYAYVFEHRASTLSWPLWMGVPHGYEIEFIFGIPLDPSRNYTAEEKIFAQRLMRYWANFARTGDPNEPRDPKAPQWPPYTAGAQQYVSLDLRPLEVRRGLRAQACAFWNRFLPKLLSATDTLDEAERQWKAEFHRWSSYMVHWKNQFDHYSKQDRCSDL

**Q.** With `COc1cc2c(c3oc(=O)c4c(c13)CCC4=O)[C@@H]1CCO[C@@H]1O2` [Aflatoxin B2, aflatoxin B2] as the molecule, how does the “quenching / decrease of the protein fluorescence emission intensity” value (“quenching / decrease” below) ([1]; pH 7.4) read?
**A.** about 11%

**Q.** What about the Kd ([1]; pH 7.4) of the same molecule?
**A.** 10.3 nM

**Q.** And the Kd ([2]; pH 7.4, read-out: kD for the binding site at higher affinity)?
**A.** 56.6 nM

**Q.** What about the “interaction with the protein in MST” value [3] of the same molecule?
**A.** did not confirm this prediction

**Q.** How did the “quenching / decrease” value ([1]; pH 7.4) turn out when `CC1=C[C@H]2O[C@@H]3[C@H](O)C[C@](C)([C@@]2(CO)[C@H](O)C1=O)[C@]31CO1` [Deoxynivalenol, deoxynivalenol] was run?
**A.** 17%

**Q.** Which results are given for Aflatoxin B1?
**A.** decrease of the fluorescence emission spectrum at increasing concentrations of the toxin [1]: did not show a significant decrease; effect on Trp fluorescence emission at increasing toxin concentration [4]: a quenching effect was registered; interaction with the protein in MST ([2]; pH 7.4): no evidence of the interaction; Kd ([3]; pH 8): 8400 ± 694 nM

**Q.** For `CN1C(=O)[C@]23CC4=CC=C[C@H](O)[C@H]4N2C(=O)[C@@]1(CO)SS3` [Gliotoxin, gliotoxin], which Kd ([1]; Trp fluorescence emission variation, PBS buffer pH 7.4, 25 °C, non-linear regression) is on record?
**A.** 307 nM

**Q.** What about the “quenching / decrease” value ([1]; pH 7.4) of the same molecule?
**A.** about 17%

**Q.** What about the Kd ([2]; MST, PBS buffer pH 7.4, 25 °C, read-out: kD) of the same molecule?
**A.** 1520 nM

**Q.** And the “interaction with the protein in MST” value ([3]; result in words, data not shown)?
**A.** did not confirm this prediction
